pEC50: −log10 of the molar value. Read-outs that look alike come from different tables or passages of the source.
Tests used:
[1] = Log P (summary of biological and physicochemical properties, Table 4)
[2] = system: telomerase (extracts from A2780 human ovarian carcinoma cells); experiment: Modified telomeric repeat amplification protocol (TRAP) assay, cell-free; type: biochemical
Procedure: The ability of compounds to inhibit telomerase in a cell-free assay was assessed with a modified TRAP assay using extracts from exponentially growing A2780 human ovarian carcinoma cells. The TRAP assay was performed in 2 steps: • (a) telomerase-mediated extension of the forward primer (TS: 5′-AATCCGTCGAGCAGAGTT, Oswel Ltd., Southampton, UK) contained in a 40 μL reaction mix comprising TRAP buffer (20 mM Tris-HCl (pH 8.3), 68 mM KCl, 1.5 mM MgCl2, 1 mM EGTA, 0.05% v/v Tween 20), 0.05 μg bovine serum albumin, 50 μM of each deoxynucleotide triphosphate, 0.1 μg TS primer, and 3 μCi of [α-P]dCTP (Amersham plc, UK)Protein (40 ng or 20 ng) was then incubated with the reaction mix and agent (acid addition and quaternary dimethiodide salts) at final concentrations of up to 50 μM for 20 min at 25° C. A lysis buffer (no protein) control, heat-inactivated protein control, and 50% protein (20 ng or 10 ng) control were included in each assay; and • (b) while heating at 80° C. in a PCR block of a thermal cycler (Hybaid, UK) for 5 min to inactivate telomerase activity, 0.1 μg of reverse CX primer (3′-[…]-5′) and 2 Units of Taq DNA polymerase (“red hot”, Advanced Biotechnologies) were added. A 3-step PCR was then performed: 94° C. for 30 s, 50° C. for 30 s, and 72° C. for 1 min for 31 cycles. Telomerase-extended PCR products in the presence or absence of compounds were then determined either by electrophoretic separation using 8% w/w acrylamide denaturing gels and analysis by phosphorimaging or autoradiography, or by harvesting on Whatman filters (25 mm glass microfibre) and analysis by liquid scintillation counting.

Thermodynamic solubility = type: physicochemical; details: for solubility at 24 h: thermodynamic from solid, read-out: Solubility Free Base equivalent
Procedure: Thermodynamic solubility values were determined in each of 0.1M HCl, Deionised water, pH6.8 phosphate buffer, 0.9% saline and 5% dextrose.
1.25-1.5 mg of sample was weighed out into a 1 ml HPLC tube to which 0.25 ml of the dissolution media was added to allow for determination of solubility up to 5 mg/ml. This suspension was then shaken for 24 hours before measurement of the pH, filtration (through a 96 well plate with a glass fibre filter membrane), dilution and analysis of the neat and diluted solutions at different injection volumes on a generic 5 minute HPLC method.
A reference solution was prepared in DMSO for comparison and calculation of the test solubilities. XRPD patterns were measured of remaining solids from experiments where complete dissolution was not achieved.
It is believed the large additional peak noted in the HPLC chromatograms is due to a rotamer of the parent compound. This should therefore be included in the overall peak area assessment. Therefore, the largest and second largest peaks noted in the reference solution were added together as were the same peaks (i.e. the same retention times) in the test sample injections.

[3] = Pharmacokinetic evaluation in mice (plasma kinetics); type: in vivo, mouse; details: for AUC(0-t): female, MF1, mouse; for Cmax / clearance / half-life: mouse, female MF1 mice; for half-life: single dose (1 mg/kg iv or 20 mg/kg oral; route not stated with values)
Procedure: The test article is identified as BSG17 and has been studied in comparison to BSG01 (BRACO-19). The vials containing bulk test article were stored at room temperature (15-30° C.).
The test compound was reconstituted in 0.9% physiological saline B.P. to the required final concentrations. To ensure the stability of the test formulations, prepared formulations were administered within two hours of preparation.
Treated mice received a single bolus intravenous injection or oral gavage of the test formulations at a dose-volume of […] bodyweight. Control mice were untreated.
The mouse was selected because it is a rodent species and is acceptable to the regulatory authorities for pharmacokinetic studies. Dose levels of 1 mg/kg (intravenous) and 20 mg/kg (oral) were selected for this study.
Female MF1 mice in the weight rang of 26-30 g (6 to 8 weeks of age) were obtained from the BRF Facility, SGHMS/Harlan UK, Bicester and were individually identified using a permanent tail mark (using a non-toxic marker pen). The test article was administered to thirty-six (36) mice after a period of seven (7) days of acclimatisation to the study room.
Blood samples were obtained from three mice per time point and at the time points as specified below:
Blood samples were collected by cardiac puncture with mice held under deep halothane anaesthesia. After sampling mice were euthanased by cervical dislocation.
Samples were collected into pre-heparinised syringes and the samples transferred into 1 ml eppendorf tubes. Plasma was prepared by centrifugation, transferred to clean, labelled eppendorf tubes and frozen at approximately −20° C. pending analysis.
Samples were analysed using HPLC or GC-MS/MS methodology.
Composite plasma concentration time curves were generated over the period of 6-8 hours after the bolus iv or oral dose was administered.

[4] = LogP/D measurement (octanol/ISA water titration); type: physicochemical; details: for logD / logP: octanol/ISA (ionic strength adjusted) water; for logP / Measured LogPion: octanol/ISA water; for logP: read-out: Measured LogP
Procedure: The LogP values were measured by titration of solutions of the compound in Octanol/ISA (ionic strength adjusted) water mixtures on a Sirius GipKa instrument. Titrations in different ratios of Octanol to water enabled the calculation of the Log Pion values and therefore the LogD profile. Prediction of LogP values were made using ACD v8.07 and Syracuse KNOWWIN v1.67 software.

[5] = Cytotoxicity / growth inhibition, DU145; type: cell-based; details: human, DU145 cells; read-out: Cytotoxic IC50 vs. DU145
[6] = Table 3, unit inferred, read-out: TRAP EC50
[7] = Table 4, read-out: Telomerase EC50
[8] = 0.9% saline, saline or isotonic, 0.9% NaCl, 24 hours
[9] = aqueous buffer, pH 6.8 phosphate buffer, 24 hours
[10] = deionised water, Water, 24 hours
[11] = saline or isotonic, 5% Dextrose, 24 hours
[12] = simulated gastric fluid, 0.1M HCl, 24 hours
[13] = pH 6, read-out: Measured LogD pH 6
[14] = pH 6.5, read-out: Measured LogD pH 6.5
[15] = pH 7.4, read-out: Measured LogD pH 7.4

SMILES	logP [1]	pEC50 [2, 6]	pEC50 [2, 7]	PH of unfiltered Saturated solution (Thermodynamic solubility; 0.1M HCl)	PH of unfiltered Saturated solution (Thermodynamic solubility; 0.9% NaCl)	solubility at 24 h (Thermodynamic solubility; [8])	PH of unfiltered Saturated solution (Thermodynamic solubility; 5% Dextrose)	PH of unfiltered Saturated solution (Thermodynamic solubility; Water)	solubility at 24 h (Thermodynamic solubility; [9])	solubility at 24 h (Thermodynamic solubility; [10])	PH of unfiltered Saturated solution (Thermodynamic solubility; pH 6.8 phosphate buffer)	solubility at 24 h (Thermodynamic solubility; [11])	solubility at 24 h (Thermodynamic solubility; [12])	AUC(0-t) ([3]; Table 3)	AUC(0-t) ([3]; unit inferred)	Cmax [3]	clearance [3]	half-life [3]	logD [4, 13]	logD [4, 14]	other results
O=C(CCN1CCCC1)Nc1ccc2c(NCc3ccc(F)c(F)c3)c3ccc(NC(=O)CCN4CCCC4)cc3nc2c1 [BSG17, N-(9-(3,4-Difluoro-benzylamino)-6-(3-pyrolidin-1-yl-propionamide)-acridin-3-yl)-3-pyrrolidin-1-yl-propionamide]	1.59	7.49	6.79	1.12	8.81	< 1 µg/mL	7.96	8.34	1950 µg/mL	20 µg/mL	7.49	300 µg/mL	> 5000 µg/mL	1.23 µM·h	1.23 µM·h	1700 nM	0.667 mL/min	2.1 h	-0.15	0.38	logD [4, 15]: 1.58; logP [4]: 5.54; Measured LogPion [4]: 3.75; IC50 at 96 h [5]: 9750 nM
CN(C)c1ccc(Nc2c3ccc(NC(=O)CCN4CCCC4)cc3nc3cc(NC(=O)CCN4CCCC4)ccc23)cc1 [BSG01]	1.4	6.94	6.94	1.25	9.80	< 1 µg/mL	8.26	8.66	2630 µg/mL	< 1 µg/mL	7.45	220 µg/mL	> 5000 µg/mL	0.96 µM·h	0.96 µM·h	1900 nM	1 mL/min	1.1 h	-2.56	-1.47	Solubility Free Base equivalent (Thermodynamic solubility; Water, 24 hours): <1 µg/mL; logD [4, 15]: 0.74; logP [4]: 5.02; Measured LogPion [4]: 2.62; IC50 at 96 h [5]: 2300 nM

Reference: patent US20080319001A1, “Cancer Treatment Using Specific 3,6,9-Substituted Acridines” (priority 2005, published 2008)
